SMILES strings stand for the structures.

One assay concerns the target Carbonic anhydrase 2 (Homo sapiens, UniProt P00918). Briefly: Inhibition of human carbonic anhydrase 2 incubated for 15 mins prior to testing by CO2 hydration-based stopped flow assay.
The target in assay [1] is T1, Carbonic anhydrase 1 (Homo sapiens, UniProt P00915). Briefly: Inhibition of human carbonic anhydrase 1 incubated for 15 mins prior to testing by CO2 hydration-based stopped flow assay.
Target sequence in this assay (P00915 whole entry): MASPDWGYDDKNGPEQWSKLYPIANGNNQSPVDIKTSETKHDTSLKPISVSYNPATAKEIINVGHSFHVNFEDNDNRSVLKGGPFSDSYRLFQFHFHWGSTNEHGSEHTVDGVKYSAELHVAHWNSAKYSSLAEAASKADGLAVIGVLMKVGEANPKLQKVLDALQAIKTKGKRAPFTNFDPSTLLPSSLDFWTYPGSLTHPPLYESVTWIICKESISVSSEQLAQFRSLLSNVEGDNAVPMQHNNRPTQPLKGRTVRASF
Assay [2] deals with T2, Carbonic anhydrase 9 (Homo sapiens, UniProt Q16790). Briefly: Potency index, ratio of Ki for acetazolamide to Ki for test compound for inhibition of human carbonic anhydrase 9.
A further assay has as its target Carbonic anhydrase 12 (Homo sapiens, UniProt O43570). Briefly: Inhibition of human carbonic anhydrase 12 incubated for 15 mins prior to testing by CO2 hydration-based stopped flow assay.
Assay [3] has as its target T2, Carbonic anhydrase 9. Briefly: Inhibition of human carbonic anhydrase 9 incubated for 15 mins prior to testing by CO2 hydration-based stopped flow assay.
For assay [4], the target named is T1, Carbonic anhydrase 1. Briefly: Potency index, ratio of Ki for acetazolamide to Ki for test compound for inhibition of human carbonic anhydrase 1.
Target sequence in this assay (P00915 2-261 limits assumed): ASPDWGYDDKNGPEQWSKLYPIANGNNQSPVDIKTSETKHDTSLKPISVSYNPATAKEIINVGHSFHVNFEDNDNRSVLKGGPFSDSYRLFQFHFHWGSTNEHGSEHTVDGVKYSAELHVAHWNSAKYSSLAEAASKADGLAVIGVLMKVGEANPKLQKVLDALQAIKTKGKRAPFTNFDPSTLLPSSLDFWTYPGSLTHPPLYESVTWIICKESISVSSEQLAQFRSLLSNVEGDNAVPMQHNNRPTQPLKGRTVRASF

Carbonic anhydrase 12, sequence (O43570 whole entry): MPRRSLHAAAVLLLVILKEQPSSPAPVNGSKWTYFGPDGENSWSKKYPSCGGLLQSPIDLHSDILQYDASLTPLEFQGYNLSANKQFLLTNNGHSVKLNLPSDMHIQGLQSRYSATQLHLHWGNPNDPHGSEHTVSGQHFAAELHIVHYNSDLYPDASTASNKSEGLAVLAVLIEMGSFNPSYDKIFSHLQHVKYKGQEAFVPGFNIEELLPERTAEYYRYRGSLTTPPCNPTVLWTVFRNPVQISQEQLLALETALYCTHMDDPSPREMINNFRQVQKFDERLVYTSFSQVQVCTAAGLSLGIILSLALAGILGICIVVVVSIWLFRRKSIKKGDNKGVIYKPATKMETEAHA

For the molecule `NS(=O)(=O)c1ccc(-c2ccc3ccccc3c2)cc1`, the inhibition constant Ki (in general, a measure of affinity in units of concentration, obtained from inhibition or displacement) on Carbonic anhydrase 2 is 0.69 nM; at Carbonic anhydrase 1 [1], 1000 nM; at Carbonic anhydrase 12, greater than 10000 nM; at Carbonic anhydrase 9 [3] it was 0.22 nM. Moreover, the Ratio Ki at Carbonic anhydrase 9 [2] was found to be 100.
Taken in the same sequence, the figures for `NS(=O)(=O)c1ccc(-c2cn(S(=O)(=O)c3ccccc3)c3ccccc23)cc1` were 0.68 nM, 83.6 nM, 96.7 nM, 0.24 nM and 100.
In the case of `NS(=O)(=O)c1ccc(-c2ccc3[nH]ccc3c2)cc1`, the Ki on Carbonic anhydrase 2 came to 0.95 nM; on Carbonic anhydrase 1 [1], 24.5 nM; at Carbonic anhydrase 12, 65 nM; at Carbonic anhydrase 9 [3], 0.17 nM. The results for the Ratio Ki on Carbonic anhydrase 9 [2] and on Carbonic anhydrase 1 [4] were 100 and 10, respectively.
For `COc1ccc2[nH]c(-c3ccc(S(N)(=O)=O)cc3)cc2c1`, the Ki on Carbonic anhydrase 2 was 764 nM; at Carbonic anhydrase 1 [1] it was 2640 nM; at Carbonic anhydrase 12 it was 415 nM; on Carbonic anhydrase 9 [3], 156 nM.
The matching figures for `NS(=O)(=O)c1ccc(-c2ccc3c(c2)OCO3)cc1`: 18 nM, greater than 10000 nM, 5.2 nM and 258 nM.
With `NS(=O)(=O)c1ccc(-c2cc3ccccc3s2)cc1`, the Ki on Carbonic anhydrase 2 is 0.84 nM; on Carbonic anhydrase 1 [1] it was 370 nM; at Carbonic anhydrase 12 it was greater than 10000 nM; at Carbonic anhydrase 9 [3] it was 0.21 nM. Also, at Carbonic anhydrase 9 [2], the Ratio Ki worked out at 100.
Consider `NS(=O)(=O)c1ccc(-c2ccc(Cn3cccn3)cc2)cc1`, for which the Ki stood at 11.1 nM on Carbonic anhydrase 2, 6970 nM on Carbonic anhydrase 1 [1], 38.3 nM at Carbonic anhydrase 12 and 216 nM on Carbonic anhydrase 9 [3].
With `NS(=O)(=O)c1ccc(-c2ccc(-c3ccc(S(N)(=O)=O)cc3)cc2)cc1`, the Ki on Carbonic anhydrase 2 was 324 nM; at Carbonic anhydrase 1 [1], greater than 10000 nM; on Carbonic anhydrase 12, 4.9 nM; on Carbonic anhydrase 9 [3], 240 nM.
As to `Cc1ccccc1-c1ccc(S(N)(=O)=O)cc1`, the Ki on Carbonic anhydrase 2 was determined as 1.2 nM; at Carbonic anhydrase 1 [1], 3500 nM; at Carbonic anhydrase 12 it was 47 nM.
The matching figures for `Nc1ccc(-c2ccc(S(N)(=O)=O)cc2)cc1`: 12.3 nM, 3700 nM and 36.5 nM.
The matching figures for `CC(C)c1ccccc1-c1ccc(S(N)(=O)=O)cc1`: 0.98 nM, 146 nM and 0.58 nM.
Turning to `NS(=O)(=O)c1ccc(-c2ccc(-c3ccc(Br)cc3)cc2)cc1`, the Ki on Carbonic anhydrase 2 is 764 nM; at Carbonic anhydrase 1 [1], greater than 10000 nM; on Carbonic anhydrase 12 it was 54.2 nM; on Carbonic anhydrase 9 [3], 224 nM.
Consider `NS(=O)(=O)c1ccc(-c2cnc3ccccc3c2)cc1`, for which the Ki is 2.5 nM at Carbonic anhydrase 2, 35.2 nM at Carbonic anhydrase 1 [1], 760 nM at Carbonic anhydrase 12 and 0.18 nM at Carbonic anhydrase 9 [3]. The Ratio Ki on Carbonic anhydrase 9 [2] came to 100; on Carbonic anhydrase 1 [4], 6.
In the case of `NS(=O)(=O)c1ccc(-c2ccccc2)cc1`, the Ki was determined as 0.79 nM on Carbonic anhydrase 2, 41.5 nM at Carbonic anhydrase 1 [1], 92.7 nM at Carbonic anhydrase 12 and 0.21 nM on Carbonic anhydrase 9 [3]. Further, the Ratio Ki on Carbonic anhydrase 9 [2] amounted to 100; on Carbonic anhydrase 1 [4], 6.
With `NS(=O)(=O)c1ccc(-c2cccc(C=O)c2)cc1`, the values for the Ki on Carbonic anhydrase 2, on Carbonic anhydrase 1 [1] and at Carbonic anhydrase 12 were 2.1 nM, 1180 nM and 0.58 nM, respectively.
As for `COC(=O)c1cccc(-c2ccc(S(N)(=O)=O)cc2)c1`, the inhibitory constant (Ki) stood at 14.2 nM at Carbonic anhydrase 2, 6960 nM at Carbonic anhydrase 1 [1], 19.5 nM on Carbonic anhydrase 12 and 159 nM at Carbonic anhydrase 9 [3].
Taken in the same sequence, the figures for `NS(=O)(=O)c1ccc(-c2cc3ccccc3n2S(=O)(=O)c2ccccc2)cc1` were 11.7 nM, greater than 10000 nM, 33.9 nM and 100 nM.
The matching figures for `N#Cc1ccc(-c2ccc(S(N)(=O)=O)cc2)cc1`: 1.2 nM, 1340 nM, 14.2 nM and 228 nM.
`NS(=O)(=O)c1ccc(-c2cc3ccccc3[nH]2)cc1`: the Ki came out at 10.2 nM on Carbonic anhydrase 2, 656 nM at Carbonic anhydrase 1 [1], 5.6 nM on Carbonic anhydrase 12 and 124 nM on Carbonic anhydrase 9 [3].
Take `NS(=O)(=O)c1ccc(-c2cccnc2)cc1`: the Ki on Carbonic anhydrase 2 came out at 16.6 nM; on Carbonic anhydrase 1 [1], 2400 nM; at Carbonic anhydrase 12, 20.3 nM; at Carbonic anhydrase 9 [3], 78.1 nM.
Regarding `NS(=O)(=O)c1ccc(-c2cc3ccccc3o2)cc1`, the Ki on Carbonic anhydrase 2 is 0.7 nM; on Carbonic anhydrase 1 [1], 185 nM; on Carbonic anhydrase 12, greater than 10000 nM; on Carbonic anhydrase 9 [3], 0.37 nM. Also, the Ratio Ki at Carbonic anhydrase 9 [2] was found to be 100.
For the molecule `COc1cc(-c2ccc(S(N)(=O)=O)cc2)cc(OC)c1OC`, the Ki on Carbonic anhydrase 2 turned out to be 19.1 nM; on Carbonic anhydrase 1 [1], 9520 nM; on Carbonic anhydrase 12, 32.2 nM; at Carbonic anhydrase 9 [3] it was 259 nM.
Taken in the same sequence, the figures for `Nc1cccc(-c2ccc(S(N)(=O)=O)cc2)c1` were 9.3 nM, 2340 nM, 4.3 nM and 126 nM.
Taken in the same sequence, the figures for `NS(=O)(=O)c1ccc(-c2cccc(-c3ccc(S(N)(=O)=O)cc3)c2)cc1` were 397 nM, greater than 10000 nM, 55.6 nM and 276 nM.

For the origin of these results see ChEMBL document CHEMBL3763133, “4-Arylbenzenesulfonamides as Human Carbonic Anhydrase Inhibitors (hCAIs): Synthesis by Pd Nanocatalyst-Mediated Suzuki-Miyaura Reaction, Enzyme Inhibition, and X-ray Crystallographic Studies” (J Med Chem, 2016).
